Tests used:
CDK2 = biological target: T1, CDK2 (Homo sapiens, UniProt P24941); test: CDK2 degradation by immunoblotting in OVCAR-8 cells; type: cell-based; details: for DC50: 24 h
T1 construct: endogenous in cells; host or cells: OVCAR-8
Experimental: (§1) CDK2 and CDK1 Degradation by Immunoblotting
(§2) Ovarian cancer cell line OVCAR-8 were cultured in 12-well plates in complete growth medium. A serial dilution of each compound was added to individual wells from a 2× stock solution, and cells were cultured for 24 hours. Cells were collected by centrifugation, and cell pellets lysed with addition of chilled RIPA buffer supplemented with protease/phosphatase inhibitors followed by incubation for 20 minutes on ice. Lysates were clarified by centrifugation and 5×SDS loading buffer was added to the supernatant followed by heating to 100° C. for 10 minutes. An aliquot of the samples were separated by SDS-PAGE and transferred to a nitrocellulose membrane. Immunoblotting was performed according to standard procedures using anti-CDK2 primary antibody (Abcam ab32147) at 1:1000 dilution and IRDye 800CW goat anti-Rabbit secondary antibody (LICOR) and imaged using a LICOR Odyssey instrument. Blots were stained with anti-beta-Actin primary antibody (Cell Signaling Technology mAb #4970) for normalization. The normalized CDK2/Actin values were calculated as a percent of DMSO treated cells and plotted to determine the concentration at which 50% of CDK2 signal is decreased (DC50). The determination of CDK1 degradation was determined similarly using anti-CDK1 primary antibody (Abcam ab131450).

CDK1 = biological target: T2, CDK1 (Homo sapiens, UniProt P06493); test: CDK1 degradation by immunoblotting in OVCAR-8 cells; type: cell-based; details: 24 h
T2 construct: endogenous in cells; host or cells: OVCAR-8
Experimental: as §1, §2

T2 sequence (P06493 whole entry): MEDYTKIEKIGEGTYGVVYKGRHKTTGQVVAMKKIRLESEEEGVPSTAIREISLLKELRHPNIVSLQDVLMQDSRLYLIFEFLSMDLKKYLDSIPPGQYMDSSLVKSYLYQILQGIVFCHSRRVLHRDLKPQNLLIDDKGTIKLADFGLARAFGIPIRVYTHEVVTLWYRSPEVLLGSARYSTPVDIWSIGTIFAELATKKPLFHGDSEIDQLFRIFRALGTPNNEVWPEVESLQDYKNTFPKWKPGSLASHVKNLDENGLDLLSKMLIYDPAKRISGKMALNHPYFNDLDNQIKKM

DC50 (CDK2) [nM]	DC50 (CDK1) [nM]	CDK2 DC50, (OVCAR-8, 24 h) (CDK2)	SMILES
–	–	inactive	Cn1c(=O)n(C2CCC(=O)NC2=O)c2cccc(CCCOCCOCC(=O)N3CCC(Nc4ncc5cc(C(F)F)c(=O)n([C@@H]6CCC[C@@]6(C)O)c5n4)CC3)c21 (stereo partly shown) [I-29]
10 to 100	1000 to 5000	–	Cc1cc(S(=O)(=O)NCCOCCOCCOCCOCCCc2cccc3c2n(C)c(=O)n3C2CCC(=O)NC2=O)ccc1Nc1ncc(Br)c(Nc2cccc(F)c2C(N)=O)n1 (stereo not shown) [I-37, 2-((5-Bromo-2-((4-(N-(15-(1-(2,6-dioxopiperidin-3-yl)-3-methyl-2-oxo-2,3-dihydro-1H-benzo[d]imidazol-4-yl)-3,6,9,12-tetraoxapentadecyl)sulfamoyl)-2-methylphenyl)amino)pyrimidin-4-yl)amino)-6-fluorobenzamide]
10 to 100	> 5000	–	CC(C)NC(=O)O[C@@H]1CC[C@H](c2cc(NC(=O)c3ccnn3CCOCCOCCOCCOCCCc3cccc4c3n(C)c(=O)n4C3CCC(=O)NC3=O)n[nH]2)C1 (stereo partly shown) [I-55]
10 to 100	> 5000	–	CC(C)NC(=O)O[C@@H]1CC[C@H](c2cc(NC(=O)c3ccnn3CCOCCOCCOCCOCCCc3ccc4c(c3)n(C)c(=O)n4C3CCC(=O)NC3=O)n[nH]2)C1 (stereo partly shown) [I-59]
10 to 100	1000 to 5000	–	CC(C)NC(=O)O[C@@H]1CC[C@H](c2cc(NC(=O)c3cnn(CCCCCCCCCCCc4cccn5c(N6CCC(=O)NC6=O)cnc45)c3)n[nH]2)C1 [I-64]
100 to 1000	1000 to 5000	–	CC(C)NC(=O)O[C@@H]1CC[C@H](c2cc(NC(=O)c3cnn(CCCCCCCCCC#Cc4cccc5c(N6CCC(=O)NC6=O)cncc45)c3)n[nH]2)C1 [I-67]
10 to 100	> 5000	–	CC(C)NC(=O)O[C@@H]1CC[C@H](c2cc(NC(=O)c3cnn(CCCCCCCCCC#Cc4cccn5c(N6CCC(=O)NC6=O)cnc45)c3)n[nH]2)C1 [I-68]
10 to 100	> 5000	–	CC(C)NC(=O)O[C@@H]1CC[C@H](c2cc(NC(=O)c3cnn(CCOCCOCCOCCCc4cccc5c4n(C)c(=O)n5C4CCC(=O)NC4=O)c3)n[nH]2)C1 (stereo partly shown) [I-72]
100 to 1000	> 5000	–	CC(C)NC(=O)O[C@@H]1CC[C@H](c2cc(CC(=O)c3cnn(CCOCCOCCOCCCc4ccc5c(N6CCC(=O)NC6=O)cncc5c4)c3)[nH]n2)C1 [I-73]
100 to 1000	> 5000	–	CC(C)NC(=O)O[C@@H]1CC[C@H](c2cc(NC(=O)c3cnn(CCOCCOCCOCCCc4ccn5c(N6CCC(=O)NC6=O)cnc5c4)c3)n[nH]2)C1 [I-74]
1000 to 5000	–	–	CC(C)NC(=O)O[C@@H]1CC[C@H](c2cc(NC(=O)c3cnn(C4CCC(CN(C)C5CCN(Cc6cccc7c6n(C)c(=O)n7C6CCC(=O)NC6=O)CC5)CC4)c3)n[nH]2)C1 (stereo partly drawn) [I-84, (1R,3S)-3-(5-(1-(4-(((1-((1-(2,6-dioxopiperidin-3-yl)-3-methyl-2-oxo-2,3-dihydro-1H-benzo[d]imidazol-4-yl)methyl)piperidin-4-yl)(methyl)amino)methyl)cyclohexyl)-1H-pyrazole-4-carboxamido)-1H-pyrazol-3-yl)cyclopentyl isopropylcarbamate]
–	–	inactive	CC(C)NC(=O)O[C@@H]1CC[C@H](c2cc(NC(=O)c3cnn(CCOCCOCCCc4ccc5c(c4)n(C)c(=O)n5C4CCC(=O)NC4=O)c3)[nH]n2)C1 (stereo partly shown) [I-85]
–	–	inactive	CC(C)NC(=O)O[C@@H]1CC[C@H](c2cc(NC(=O)c3ccnn3CCCCCCCCCc3ccc4c(c3)n(C)c(=O)n4C3CCC(=O)NC3=O)n[nH]2)C1 (stereo partly shown) [I-87]
–	–	inactive	CC(C)NC(=O)O[C@@H]1CC[C@H](c2cc(NC(=O)c3ccnn3CCCCCCCCCCCCc3cccc4c3n(C)c(=O)n4C3CCC(=O)NC3=O)n[nH]2)C1 (stereo partly shown) [I-89]
–	–	inactive	CC(C)NC(=O)O[C@@H]1CC[C@H](c2cc(NC(=O)Cc3cnn(C4CCC(CN(C)C5CCN(Cc6cccc7c6n(C)c(=O)n7C6CCC(=O)NC6=O)CC5)CC4)c3)n[nH]2)C1 (stereo partly shown) [I-93]

The remaining lines, values behind:

SMILES	DC50 (CDK2) [nM]	DC50 (CDK1) [nM]	CDK2 DC50, (OVCAR-8, 24 h) (CDK2)
Cc1cc(S(=O)(=O)NCCOCCOCCCc2ccc3c(c2)n(C)c(=O)n3C2CCC(=O)NC2=O)ccc1Nc1ncc2cc(C(F)F)c(=O)n([C@@H]3CCC[C@@]3(C)O)c2n1 (stereo partly shown) [I-5]	< 10	> 5000	–
Cc1cc(S(=O)(=O)NCCOCCOCCOCCOCCCc2ccc3c(c2)n(C)c(=O)n3C2CCC(=O)NC2=O)ccc1Nc1ncc2cc(C(F)F)c(=O)n([C@@H]3CCC[C@@]3(C)O)c2n1 (stereo partly shown) [I-7]	< 10	> 5000	–
Cc1cc(S(=O)(=O)NCCOCCOCCCc2cccc3c2n(C)c(=O)n3C2CCC(=O)NC2=O)ccc1Nc1ncc2cc(C(F)F)c(=O)n([C@@H]3CCC[C@@]3(C)O)c2n1 (stereo partly shown) [I-8]	10 to 100	> 5000	–
C[C@@]1(O)CCC[C@H]1n1c(=O)c(C(F)F)cc2cnc(NC3CCN(S(=O)(=O)CCCCCCCCCCNc4cccc5c4C(=O)N(C4CCC(=O)NC4=O)C5=O)CC3)nc21 (stereo partly shown) [I-15]	10 to 100	100 to 1000	–
Cc1cc(S(=O)(=O)NCCOCCOCCOCCOCCNc2cccc3c2C(=O)N(C2CCC(=O)NC2=O)C3=O)ccc1Nc1ncc2cc(C(F)F)c(=O)n([C@@H]3CCC[C@@]3(C)O)c2n1 (stereo partly shown) [I-17]	10 to 100	> 5000	–
Cn1c(=O)n(C2CCC(=O)NC2=O)c2ccc(CCCOCCOCCOCCOCC(=O)N3CCC(Nc4ncc5cc(C(F)F)c(=O)n([C@@H]6CCC[C@@]6(C)O)c5n4)CC3)cc21 (stereo partly shown) [I-20]	–	–	inactive
Cn1c(=O)n(C2CCC(=O)NC2=O)c2cccc(CCCOCCOCCOCCOCC(=O)N3CCC(Nc4ncc5cc(C(F)F)c(=O)n([C@@H]6CCC[C@@]6(C)O)c5n4)CC3)c21 (stereo partly drawn) [I-21, 3-(4-(1-(4-((6-(Difluoromethyl)-8-((1R,2R)-2-hydroxy-2-methylcyclopentyl)-7-oxo-7,8-dihydropyrido[2,3-d]pyrimidin-2-yl)amino)piperidin-1-yl)-1-oxo-3,6,9,12-tetraoxapentadecan-15-yl)-3-methyl-2-oxo-2,3-dihydro-1H-benzo[d]imidazol-1-yl)piperidine-2,6-dione]	–	–	inactive
Cn1c(=O)n(C2CCC(=O)NC2=O)c2ccc(CCCCCCCCC(=O)N3CCC(Nc4ncc5cc(C(F)F)c(=O)n([C@@H]6CCC[C@@]6(C)O)c5n4)CC3)cc21 (stereo partly shown) [I-22]	–	–	inactive
Cn1c(=O)n(C2CCC(=O)NC2=O)c2cccc(CCCCCCCCC(=O)N3CCC(Nc4ncc5cc(C(F)F)c(=O)n([C@@H]6CCC[C@@]6(C)O)c5n4)CC3)c21 (stereo partly shown) [I-23]	–	–	inactive
C[C@@]1(O)CCC[C@H]1n1c(=O)c(C(F)F)cc2cnc(NC3CCN(C(=O)COCCOCCOCCOCCNc4cccc5c4C(=O)N(C4CCC(=O)NC4=O)C5=O)CC3)nc21 (stereo partly shown) [I-24]	–	–	inactive
Cn1c(=O)n(C2CCC(=O)NC2=O)c2ccc(CCCCCCCCCCCC(=O)N3CCC(Nc4ncc5cc(C(F)F)c(=O)n([C@@H]6CCC[C@@]6(C)O)c5n4)CC3)cc21 (stereo partly shown) [I-25]	–	–	inactive
Cn1c(=O)n(C2CCC(=O)NC2=O)c2cccc(CCCCCCCCCCCC(=O)N3CCC(Nc4ncc5cc(C(F)F)c(=O)n([C@@H]6CCC[C@@]6(C)O)c5n4)CC3)c21 (stereo partly shown) [I-26]	–	–	inactive
C[C@@]1(O)CCC[C@H]1n1c(=O)c(C(F)F)cc2cnc(NC3CCN(C(=O)COCCOCCNc4cccc5c4C(=O)N(C4CCC(=O)NC4=O)C5=O)CC3)nc21 (stereo partly shown) [I-27]	–	–	inactive
C[C@@]1(O)CCC[C@H]1n1c(=O)c(C(F)F)cc2cnc(NC3CCN(C(=O)CCCCCCCNc4cccc5c4C(=O)N(C4CCC(=O)NC4=O)C5=O)CC3)nc21 (stereo partly shown) [I-28]	–	–	inactive

— US12097261B2, “CDK2 degraders and uses thereof” (Kymera Therapeutics, Inc., priority 2021, dated 2024)
